Experimental data as given in article PMC11081458 (Nature structural & molecular biology, 2024).

What was measured:
[1] = target: Sas6T (Ruminococcus bromii, UniProt A0ABF7PL48); assay: Isothermal titration calorimetry with Sas6T; details: for n (binding stoichiometry) / binding by ITC (in words): ITC; for n (binding stoichiometry): fitted n
[2] = target: RbCBM26 (Ruminococcus bromii, UniProt A0ABF7PL48); assay: Isothermal titration calorimetry with RbCBM26; details: for binding by ITC (in words) / n (binding stoichiometry): ITC; for n (binding stoichiometry): fitted n
[3] = target: T1, BIg–RbCBM74–BIg (Ruminococcus bromii, UniProt A0ABF7PL48); assay: Isothermal titration calorimetry with BIg–RbCBM74–BIg
[4] = tested on: F326A site-directed mutant within the BIg–RbCBM74–BIg construct; assay: Isothermal titration calorimetry with F326A mutant; details: ITC
[5] = target: T1, BIg–RbCBM74–BIg; assay: Native mass spectrometry titration, BIg–RbCBM74–BIg; details: native MS, 5 μM protein, 200 mM ammonium acetate
[6] = tested on: W373A site-directed mutant within the BIg–RbCBM74–BIg construct; assay: Isothermal titration calorimetry with W373A mutant
[7] = tested on: H289A site-directed mutant within the BIg–RbCBM74–BIg construct; assay: Isothermal titration calorimetry with H289A mutant; details: ITC
[8] = target: previously studied CBM26 modules; details: read-out: dissociation constant (Kd) range; cited from earlier work

RbCBM26, sequence (A0ABF7PL48 31-129 limits assumed): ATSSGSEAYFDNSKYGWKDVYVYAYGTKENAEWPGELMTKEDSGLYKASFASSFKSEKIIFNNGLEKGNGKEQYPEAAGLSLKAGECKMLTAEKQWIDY
Sas6T, sequence (A0ABF7PL48 31-665 limits assumed): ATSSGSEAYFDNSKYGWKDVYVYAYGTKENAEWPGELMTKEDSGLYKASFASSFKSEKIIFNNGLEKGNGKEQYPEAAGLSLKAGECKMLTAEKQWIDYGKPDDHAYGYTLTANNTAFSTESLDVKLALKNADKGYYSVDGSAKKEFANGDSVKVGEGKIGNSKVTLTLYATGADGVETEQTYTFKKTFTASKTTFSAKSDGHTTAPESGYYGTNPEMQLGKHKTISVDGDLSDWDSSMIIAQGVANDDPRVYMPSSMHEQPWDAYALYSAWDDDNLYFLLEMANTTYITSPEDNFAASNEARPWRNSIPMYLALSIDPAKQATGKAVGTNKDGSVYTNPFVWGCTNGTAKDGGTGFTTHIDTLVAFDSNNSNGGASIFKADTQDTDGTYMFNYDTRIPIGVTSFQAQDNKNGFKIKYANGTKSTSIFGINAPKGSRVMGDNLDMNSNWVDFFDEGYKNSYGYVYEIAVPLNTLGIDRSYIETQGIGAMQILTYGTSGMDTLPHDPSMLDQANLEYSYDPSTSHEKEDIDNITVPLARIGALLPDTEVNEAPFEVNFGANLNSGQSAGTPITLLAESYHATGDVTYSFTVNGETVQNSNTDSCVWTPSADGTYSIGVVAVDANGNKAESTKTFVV
T1 sequence (A0ABF7PL48 134-665 limits assumed): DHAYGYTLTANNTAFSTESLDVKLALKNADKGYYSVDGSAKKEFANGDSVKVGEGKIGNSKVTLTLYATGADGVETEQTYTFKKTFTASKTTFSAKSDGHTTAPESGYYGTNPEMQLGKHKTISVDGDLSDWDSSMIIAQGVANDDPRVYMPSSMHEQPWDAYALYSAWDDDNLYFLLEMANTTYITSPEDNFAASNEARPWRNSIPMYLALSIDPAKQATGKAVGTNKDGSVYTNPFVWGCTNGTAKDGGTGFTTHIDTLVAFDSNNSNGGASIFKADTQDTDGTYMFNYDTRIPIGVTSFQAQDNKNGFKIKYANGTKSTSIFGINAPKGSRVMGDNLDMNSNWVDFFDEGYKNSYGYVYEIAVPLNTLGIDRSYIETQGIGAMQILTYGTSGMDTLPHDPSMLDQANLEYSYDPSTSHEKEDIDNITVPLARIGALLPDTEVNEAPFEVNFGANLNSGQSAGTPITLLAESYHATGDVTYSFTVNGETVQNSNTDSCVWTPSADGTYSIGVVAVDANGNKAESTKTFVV

## OC[C@H]1O[C@@H]2O[C@H]3[C@H](O)[C@@H](O)[C@@H](O[C@H]4[C@H](O)[C@@H](O)[C@@H](O[C@H]5[C@H](O)[C@@H](O)[C@@H](O[C@H]6[C@H](O)[C@@H](O)[C@@H](O[C@H]7[C@H](O)[C@@H](O)[C@@H](O[C@H]1[C@H](O)[C@H]2O)O[C@@H]7CO)O[C@@H]6CO)O[C@@H]5CO)O[C@@H]4CO)O[C@@H]3CO [ACX, α-cyclodextrin]
[1]
  n (binding stoichiometry): 1.0 ± 0.4
[2]
  binding by ITC (in words): binds
  n (binding stoichiometry): 0.8 ± 0.13
[3]
  binding by ITC (in words): no detectable affinity

## OC[C@H]1O[C@H](O[C@H]2[C@H](O)[C@@H](O)[C@@H](O[C@H]3[C@H](O)[C@@H](O)[C@@H](O[C@H]4[C@H](O)[C@@H](O)[C@@H](O[C@H]5[C@H](O)[C@@H](O)[C@@H](O[C@H]6[C@H](O)[C@@H](O)[C@@H](O[C@H]7[C@H](O)[C@@H](O)[C@@H](O[C@H]8[C@H](O)[C@@H](O)C(O)O[C@@H]8CO)O[C@@H]7CO)O[C@@H]6CO)O[C@@H]5CO)O[C@@H]4CO)O[C@@H]3CO)O[C@@H]2CO)[C@H](O)[C@@H](O)[C@@H]1O (stereo partly shown) [G8, maltooctaose]
[1]
  Kd: 496 ± 260 µM
  binding by ITC (in words): in the hundreds of μM
[2]
  Kd: 285 ± 84 µM

## OC[C@H]1O[C@H](O[C@H]2[C@H](O)[C@@H](O)[C@@H](O[C@H]3[C@H](O)[C@@H](O)[C@@H](O[C@H]4[C@H](O)[C@@H](O)[C@@H](O[C@H]5[C@H](O)[C@@H](O)[C@@H](O[C@H]6[C@H](O)[C@@H](O)[C@@H](O[C@H]7[C@H](O)[C@@H](O)[C@@H](O[C@H]8[C@H](O)[C@@H](O)[C@@H](O[C@H]9[C@H](O)[C@@H](O)[C@@H](O[C@H]%10[C@H](O)[C@@H](O)C(O)O[C@@H]%10CO)O[C@@H]9CO)O[C@@H]8CO)O[C@@H]7CO)O[C@@H]6CO)O[C@@H]5CO)O[C@@H]4CO)O[C@@H]3CO)O[C@@H]2CO)[C@H](O)[C@@H](O)[C@@H]1O (stereo partly shown) [G10, maltodecaose]
[1]
  n (binding stoichiometry): 0.8 ± 0.07
[2]
  n (binding stoichiometry): 0.7 ± 0.21
[3]; ITC, fitted n
  n (binding stoichiometry): 0.9 ± 0.20
[4]
  decrease in affinity relative to BIg–RbCBM74–BIg: 10–20 fold
[5]
  Kd: 2.16 ± 0.53 µM
[6]
  binding by ITC (in words): lost binding
[7]
  decrease in affinity relative to BIg–RbCBM74–BIg: 10–20 fold

## OC[C@H]1O[C@H](O[C@H]2[C@H](O)[C@@H](O)[C@@H](O[C@H]3[C@H](O)[C@@H](O)[C@@H](O[C@H]4[C@H](O)[C@@H](O)[C@@H](O[C@H]5[C@H](O)[C@@H](O)[C@@H](O[C@H]6[C@H](O)[C@@H](O)[C@@H](O[C@H]7[C@H](O)[C@@H](O)[C@@H](O[C@H]8[C@H](O)[C@@H](O)[C@@H](O[C@H]9[C@H](O)[C@@H](O)[C@@H](O[C@H]%10[C@H](O)[C@@H](O)[C@@H](O[C@H]%11[C@H](O)[C@@H](O)[C@@H](O[C@H]%12[C@H](O)[C@@H](O)[C@@H](O[C@H]%13[C@H](O)[C@@H](O)[C@@H](O[C@H]%14[C@H](O)[C@@H](O)C(O)O[C@@H]%14CO)O[C@@H]%13CO)O[C@@H]%12CO)O[C@@H]%11CO)O[C@@H]%10CO)O[C@@H]9CO)O[C@@H]8CO)O[C@@H]7CO)O[C@@H]6CO)O[C@@H]5CO)O[C@@H]4CO)O[C@@H]3CO)O[C@@H]2CO)[C@H](O)[C@@H](O)[C@@H]1O (stereo partly shown) [G14, maltotetradecaose]
[5]
  Kd: 1.29 ± 0.1 µM

## OC[C@H]1O[C@H](OC[C@H]2O[C@H](O[C@H]3[C@H](O)[C@@H](O)[C@@H](O[C@H]4[C@H](O)[C@@H](O)[C@@H](OC[C@H]5O[C@H](O[C@H]6[C@H](O)[C@@H](O)[C@@H](O[C@H]7[C@H](O)[C@@H](O)C(O)O[C@@H]7CO)O[C@@H]6CO)[C@H](O)[C@@H](O)[C@@H]5O)O[C@@H]4CO)O[C@@H]3CO)[C@H](O)[C@@H](O)[C@@H]2O)[C@H](O)[C@@H](O)[C@@H]1O (stereo partly drawn) [glucosyl-α1,6-maltotriosyl-α 1,6-maltotriose]
[1]
  binding by ITC (in words): None of the constructs bound
[2]
  binding by ITC (in words): None of the constructs bound
[3]
  binding by ITC (in words): None of the constructs bound

## OC[C@H]1O[C@@H]2O[C@H]3[C@H](O)[C@@H](O)[C@@H](O[C@H]4[C@H](O)[C@@H](O)[C@@H](O[C@H]5[C@H](O)[C@@H](O)[C@@H](O[C@H]6[C@H](O)[C@@H](O)[C@@H](O[C@H]7[C@H](O)[C@@H](O)[C@@H](O[C@H]8[C@H](O)[C@@H](O)[C@@H](O[C@H]1[C@H](O)[C@H]2O)O[C@@H]8CO)O[C@@H]7CO)O[C@@H]6CO)O[C@@H]5CO)O[C@@H]4CO)O[C@@H]3CO [β-cyclodextrin]
[8]
  Kd: 350 to 600 µM

## maltoheptaose [G7]
[1]
  binding by ITC (in words): in the hundreds of μM
[2]
  binding by ITC (in words): binds
[3]
  binding by ITC (in words): no detectable affinity
